The text below walks through data of ChEMBL document CHEMBL1833868, “Design and synthesis of resveratrol-based nitrovinylstilbenes as antimitotic agents” (J Med Chem, 2011).

Assay [1] has as its system HeLa. Description: Induction of apoptosis in human HeLa cells assessed as increase in caspase 3 activity at 5 uM after 24 hrs by fluorimetry relative to control. Type of assay: functional.
The nature of assay [2]: Inhibition of bovine tubulin assembly after 1 hr by fluorescence assay. Also noted: species or system Bos taurus.
Assay [3] deals with HeLa. Description: Induction of cell cycle arrest in human HeLa cells assessed as accumulation of cells in G1 phase at 5 uM after 24 hrs by flow cytometry analysis (reference value: 69.43%). It is filed as functional. (In general: A flow cytometer gives signals particle by particle.)
The test system of assay [4] is HeLa. Description: Induction of cell cycle arrest in human HeLa cells assessed as accumulation of cells in S phase at 5 uM after 24 hrs by flow cytometry analysis (reference value: 9.28%). It is filed as functional.
Assay [5] concerns HeLa. Put plainly: Induction of cell cycle arrest in human HeLa cells assessed as accumulation of cells in G2/M phase at 5 uM after 24 hrs by flow cytometry analysis (reference value: 21.29%). Type of assay: functional.
Assay [6] concerns HeLa. Put plainly: Antimitotic activity in human HeLa cells assessed as disruption of microtubule network at 5 uM after 24 hrs by indirect immunofluorescence analysis. It is filed as functional, cell-based.
Assay [7] concerns HeLa. Put plainly: Effect on formation of bipolar spindles in human HeLa cells at 5 uM after 24 hrs by indirect immunofluorescence analysis. It is filed as functional, cell-based.
In assay [8] the test system is HeLa. Description: Effect on nuclear condensation in human HeLa cells assessed as incomplete chromosome formation at 5 uM after 24 hrs by indirect immunofluorescence analysis. Type of assay: functional, cell-based.
For a further assay, the species on record is Bos taurus. Put plainly: Inhibition of bovine tubulin polymerization at 3 uM after 1 hr by fluorescence assay relative to control.
The next assay concerns MCF7. Description: Antiproliferative activity against human MCF7 cells assessed as cell viability after 48 hrs by SRB assay. Type of assay: functional, cell-based. The following applies: MCF7, 48 h. On the technique in general: In SRB staining, fixed cells bind dye roughly in proportion to their protein.
The test system of a further assay is A549. Put plainly: Antiproliferative activity against human A549 cells assessed as cell viability after 48 hrs by SRB assay. Type of assay: functional, cell-based. The settings on record: A549, 48 h.
Assay [9] relates to HeLa. Put plainly: Antiproliferative activity against human HeLa cells assessed as cell viability after 48 hrs by SRB assay. It is filed as functional, cell-based.
For assay [10], the system named is HeLa. Description: Induction of apoptosis in human HeLa cells assessed as increase in caspase 3 activity at 40 uM after 24 hrs by fluorimetry relative to control. Type of assay: functional.
Assay [11] deals with HeLa. Description: Induction of apoptosis in human HeLa cells assessed as increase in caspase 3 activity at 5 uM after 24 hrs by fluorimetry. Type of assay: functional, cell-based.

Molecules are shown by their SMILES. The source made the active and inactive calls. No cut-off for these calls is given here.

For the molecule `COc1cc(/C=C/[N+](=O)[O-])c(/C=C/c2ccc(C)cc2)c(OC)c1OC`, in the assay on HeLa [1], the “fold change (FC)” value worked out at 12. Besides, the IC50 was 4.27 µM in assay [2]; 42.5 µM in the assay with MCF7; 19 µM in the assay with A549; 4.4 µM in the assay on HeLa [9] (Homo sapiens, HeLa, 48 h). For the same molecule, the results for the Activity in the assay on HeLa [3], in the assay with HeLa [4] and with HeLa [5] were 9.66%, 23.91% and 66.43%, respectively. Moreover, the outcome in the assay with HeLa [6] and in the assay on HeLa [8] was Active. Further, the outcome in the assay with HeLa [7] was inactive. This molecule returned an inhibition in the assay filed under Bos taurus of 62%.
For `COc1cc(/C=C/[N+](=O)[O-])c(/C=C/c2ccc(F)cc2)c(OC)c1OC`, the inhibition in the assay listed under Bos taurus came out at 31%. Further, the IC50 in the assay with MCF7 was found to be 19 µM; in the assay on A549 it was 35.9 µM; in the assay with HeLa [9] (Homo sapiens, HeLa, 48 h), 12.4 µM.
Turning to `COc1cc(/C=C/[N+](=O)[O-])c(/C=C/c2ccc(Cl)cc2)c(OC)c1OC`, the inhibition in the assay filed under Bos taurus was 33%. For the same molecule, the results for the half-inhibitory concentration (IC50) with MCF7, with A549 and in the assay with HeLa [9] (hela) were 25.7 µM, 22.8 µM and “Not Active”, respectively.
In the assay listed under Bos taurus, `COc1cc(/C=C/c2c(/C=C/[N+](=O)[O-])cc(OC)c(OC)c2OC)cc(OC)c1OC` registered an inhibition of 20%. For the same molecule, the half-inhibitory concentration (IC50) in the assay on MCF7 is 13.2 µM; in the assay on A549, 27.1 µM; in the assay with HeLa [9] (hela), “Not Active”.
`COc1cc2c(c(OC)c1OC)-c1ccc(OC)c(=O)cc1[C@@H](NC(C)=O)CC2` [COLCHICINE] showed an IC50 in assay [2] of 1.96 µM. Besides, in the assay filed under Bos taurus, the inhibition came out at 58%.
Take `Oc1ccc(/C=C/c2cc(O)cc(O)c2)cc1` [RESVERATROL]: the “fold change (FC)” value in the assay with HeLa [10] turned out to be 5. In addition, the IC50 in the assay on MCF7 was 79.1 µM; in the assay with A549 it was 44.7 µM; in the assay on HeLa [9] (Homo sapiens, HeLa, 48 h), 22.5 µM. Further, the outcome with HeLa [11] was inactive.
For `COc1cc(/C=C/[N+](=O)[O-])c(/C=C/c2ccccc2)c(OC)c1OC`, the inhibition in the assay listed under Bos taurus came to 31%. Besides, the IC50 in the assay with MCF7 came out at 10.9 µM; in the assay on A549, 28.9 µM; in the assay on HeLa [9] (Homo sapiens, HeLa, 48 h), 5.42 µM.
In turn, `COc1cc(/C=C/[N+](=O)[O-])c(/C=C/c2ccc(-c3ccccc3)cc2)c(OC)c1OC` had an inhibition in the assay listed under Bos taurus of 28%. Also, the results for the IC50 in the assay on MCF7, in the assay on A549 and in the assay with HeLa [9] (hela) were 7.2 µM, 44.4 µM and “Not Active”, respectively.
In the assay listed under Bos taurus, `COc1cc(/C=C/[N+](=O)[O-])c(/C=C/c2ccc(Br)cc2)c(OC)c1OC` gave an inhibition of 28%. For the same molecule, the IC50 in the assay on MCF7 was 14.6 µM; in the assay with A549, 41 µM; with HeLa [9] (hela) it was “Not Active”.
Molecule `COc1cc(/C=C/c2c(/C=C/[N+](=O)[O-])cc(OC)c(OC)c2OC)cc(OC)c1` gave an inhibition in the assay filed under Bos taurus of 27%. Besides, the IC50 amounted to 19.2 µM with MCF7; 15 µM in the assay with A549; 10 µM in the assay with HeLa [9] (Homo sapiens, HeLa, 48 h).
As to `COc1cc(/C=C/[N+](=O)[O-])c(/C=C/c2ccc3ccccc3c2)c(OC)c1OC`, in the assay filed under Bos taurus, the inhibition worked out at 32%. For the same molecule, the half-maximal inhibitory concentration (IC50) with MCF7 came to 16.7 µM; with A549 it was 59.5 µM; in the assay on HeLa [9] (Homo sapiens, HeLa, 48 h), 189 µM.
As to `COc1cc(/C=C/[N+](=O)[O-])c(/C=C/c2ccc3c(c2)OCO3)c(OC)c1OC`, the IC50 in [2] amounted to 8.02 µM; in the assay with MCF7 it was 19.2 µM; in the assay with A549 it was 16.3 µM; in the assay on HeLa [9] (Homo sapiens, HeLa, 48 h) it was 5.4 µM. In addition, the Activity in the assay with HeLa [3] was 27.14%; with HeLa [4] it was 22.3%; with HeLa [5] it was 50.56%. The inhibition in the assay filed under Bos taurus is 51%.
In the case of `COc1ccc(/C=C/c2c(/C=C/[N+](=O)[O-])cc(OC)c(OC)c2OC)cc1`, the “fold change (FC)” value in the assay with HeLa [1] amounted to 10. In addition, the IC50 in [2] worked out at 4.9 µM; with MCF7 it was 21.4 µM; with A549 it was 40.4 µM; in the assay with HeLa [9] (Homo sapiens, HeLa, 48 h) it was 7.8 µM. The Activity in the assay on HeLa [3] stood at 16.64%; in the assay with HeLa [4] it was 22.96%; with HeLa [5], 60.4%. Further, the result in the assay with HeLa [6] and with HeLa [8] was Active. Besides, in the assay with HeLa [7], the outcome was inactive. The inhibition in the assay listed under Bos taurus was 59%.

One may read the IC50 as the concentration needed to halve the response being measured. For orientation: inhibition means the relative decrease from the control value, in per cent. High values mean a strong effect, low ones a weak effect.
